# Marks after values point to notes of the source that are not given here.
# Test system: male ICR mice on high-fat feed
# Test: Body fat and body weight reduction in mice given high-fat feed
# Assay type: in vivo, mouse
# Conditions: extracts 300 mg/kg
# Excerpt: As experimental animals, 4-week-old male ICR mice were purchased from Orient Bio and acclimated for a week. Each group consisted of 10 animals. For a normal diet group (G1) and high-fat diet groups (G2 to G6), normal feed (energy ratio (kcal %); protein:carbohydrate:fat=20:70:10) or high-fat feed (energy ratio (kcal %); protein:carbohydrate:fat=20:20:60) purchased from Research Diets, Inc. (New Brunswick, NJ, USA) was provided, respectively. The feed and water were allowed freely. The specific compositions of the normal feed and the high-fat feed are described in Table 6. The test substance was administered orally at regular intervals for 8 weeks by dissolving in physiological saline (G3 to G6). For G1 and G2, physiological saline containing no test substance was administered orally. The experimental animal breeding room was maintained at 12-hour lighting cycles under the condition of 23±3° C., 50 t 10% relative humidity and 10-15 ventilations/hour. The animal experiment was conducted in accordance with the regulations of the Hallym University Institutional Animal Care and Use Committee (Hallym 2018-31). The experimental animals were divided into […]: normal group (G) to which normal feed was given for 6 weeks; control group (G2) to which high-fat feed was given; G3 to which high-fat feed was given and 300 mg/kg of the Gynostemma pentaphyllum tea extract of Example was administered; G4 to which 300 mg/kg of the Gynostemma pentaphyllum tea extract of Comparative Example was administered; G5 to which 300 mg/kg of the Gynostemma pentaphyllum tea extract of Comparative Example 2 was administered; G6 to which 300 mg/kg of the Gynostemma pentaphyllum tea extract of Comparative Example 3 was administered; […] The composition of the test groups is described specifically in Table 7. Initial body weight, final body weight, total body weight gain, feed intake, body fat percentage and feed efficiency ratio (FER) were measured while providing the feed specified in 6-2 to each test group for 8 weeks. Specifically, the body weight was measured using a digital scale once a week at the same time. The feed efficiency ratio (FER) was calculated by the following equation. The result of investigating the initial body weight, final body weight, total body weight gain, feed intake, body fat percentage and feed efficiency ratio for 8 weeks is given in Table 8. Feed efficiency ratio (FER)=body weight gain (g)/feed intake (g) [Equation]
# [1] = high-fat feed, 8 weeks oral, orlistat 30 mg/kg
compound,measurement,setting,value
"CCCCCCCCCCC[C@@H](C[C@@H]1OC(=O)[C@H]1CCCCCC)OC(=O)[C@H](CC(C)C)NC=O [Orlistat, orlistat]",Initial body weight,"baseline, high-fat feed ICR mice, orlistat 30 mg/kg oral",21.7 ± 0.2 g
same,Feed efficiency ratio (FER),"body weight gain (g)/feed intake (g), high-fat feed, 8 weeks oral, orlistat 30 mg/kg",0.126 ± 0.005
same,Body fat percentage (%),[1],36.6 ± 0.7 %
same,Body weight gain (%),[1],70.97* %
same,Final body weight,[1],37.1 ± 0.6 g
same,Total body weight gain,[1],15.4 ± 0.2 g
same,Total feed intake,[1],122.4 ± 0.3 g

# Reference: patent US12653856B2, “Gynostemma pentaphyllum tea or Gynostemma pentaphyllum tea extract containing gypenoside L and gypenoside LI and antiobesity use thereof” (BIONIC TRADING CORPORATION, priority 2021, dated 2026)
